# Experimental data reported in patent US20220313634A1, “AGENT FOR THE PROPHYLACTIC AND/OR SUPPORTIVE THERAPEUTIC TREATMENT OF PARKINSON'S DISEASE” (priority 2017, published 2022).
# Tested on: Parkinson's patients
# Test: Patient studies of butyric acid/butyrate given with physician-directed medication
# Assay type: in vivo, human
# Experimental: The effect of butyric acid/butyrate was investigated in patient studies in which more than 1,000 test subjects have participated for at least one year each. A total amount of 6 g butyric acid or butyrate (as salt) was administered together with the physician-directed medication (levodopa etc.) in three daily doses with meals in the morning, at noon and in the evening.
# This is especially important because the usual medication for Parkinson's patients, not only with levodopa, can lead to considerable side effects such as dizziness, nausea, tachyarrhythmia, psychosis, dyskinesia and circulatory problems.
structure (smiles),measurement,setting,value
"CCCC(=O)O [butyric acid/butyrate, butyric acid]","general condition, in particular with respect to the motor functions","more than 1,000 test subjects, at least one year each, total 6 g butyric acid or butyrate (as salt) in three daily doses with meals, together with levodopa etc.",Significant improvements
same,reduction of the amount of dopamine used by Parkinson's patients,patients treated with butyric acid/butyrate,at least 50%
same,"reduction of the amount of dopamine used by Parkinson's patients, in some cases","patients treated with butyric acid/butyrate, in some cases",up to 90%
